Reference: PubChem BioAssay AID206 (DTP/NCI, 2004)
Values joined by “and” are separate entries in the source; they are usually repeats but may differ in a detail not shown here. Identical values can stand only once. Results filed as inconclusive are left out. Starred links: 1 amine or outer side, 2 acyl side, 3 side chain; linkers in the order of their positions; H or OH if unused. Positions of bridges follow the written chain, without caps; N, C: chain ends. Non-standard residues stand in square brackets, D forms with d. Residues, ends and D or L forms follow the SMILES beside them. Chains are numbered I, II in the order given. Actinocin(1to9) = Cc1c2oc3c(C)ccc(C(=O)[*:2])c3nc-2c(C(=O)[*:1])c(N)c1=O; NMeV = CN[CH](C(=O)O)C(C)C; Aze = O=C(O)[CH]1CCN1; Sar = CNCC(=O)O

System: nude mice, HT29 intrarenal xenograft, tumor weight T/C
Assay: NCI In Vivo Anticancer Drug Screen. Data for tumor model HT29;CX-1 Human Adenocarcinoma (MER+) (intrarenal inoculation) in NU/NU Swiss (nude) mice
Details: endpoint: mean tumor weight change, higher = larger tumour
Outline: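 Compounds were given to mice carrying transplantable tumors; a vehicle-dosed group served as control. The endpoint measured in each group was compared as a T/C quotient.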

[1] = dose: 75.0 mg/kg/injection, schedule: Q04DX004 (sc), vehicle: saline with Tween-80
[2] = dose: 150.0 mg/kg/injection, schedule: Q04DX004 (sc), vehicle: saline with Tween-80
[3] = dose: 300.0 mg/kg/injection, schedule: Q04DX004 (sc), vehicle: saline with Tween-80
[4] = dose: 12.5 mg/kg/injection, schedule: Q01DX010 (sc), vehicle: Klucel (hydroxypropylcellulose) (HPC)
[5] = dose: 150.0 mg/kg/injection, schedule: Q04DX004 (sc), vehicle: saline
[6] = dose: 400.0 mg/kg/injection, schedule: Q01DX010 (sc), vehicle: saline with Tween-80
[7] = dose: 600.0 mg/kg/injection, schedule: Q04DX004 (sc), vehicle: Klucel (hydroxypropylcellulose) (HPC)
[8] = dose: 1200.0 mg/kg/injection, schedule: Q04DX004 (sc), vehicle: Klucel (hydroxypropylcellulose) (HPC)
[9] = dose: 2400.0 mg/kg/injection, schedule: Q04DX004 (sc), vehicle: Klucel (hydroxypropylcellulose) (HPC)
[10] = dose: 300.0 mg/kg/injection, schedule: Q04DX004 (sc), vehicle: Klucel (hydroxypropylcellulose) (HPC)

COc1ccc(C(N)=O)cc1N=NN(C)C
T/C (dose: 18.75 mg/kg/injection, schedule: Q04DX004 (sc), vehicle: Klucel (hydroxypropylcellulose) (HPC)): 100 % of control | T/C (dose: 37.5 mg/kg/injection, schedule: Q04DX004 (sc), vehicle: Klucel (hydroxypropylcellulose) (HPC)): 31 % of control and 55 % of control | T/C (dose: 75.0 mg/kg/injection, schedule: Q04DX004 (sc), vehicle: Klucel (hydroxypropylcellulose) (HPC)): 45 % of control and 52 % of control and 70 % of control

C[C@]12CC[C@H](O)CC1=CC[C@@H]1[C@@H]2CC[C@]2(C)C(=O)CC[C@@H]12
T/C [1]: 110 % of control | T/C [2]: 180 % of control | T/C [3]: 54 % of control | T/C (dose: 600.0 mg/kg/injection, schedule: Q04DX004 (sc), vehicle: saline with Tween-80): 67 % of control

[N-]=[N+]=C1N=CN=C1c1ncn[nH]1
T/C [4]: 73 % of control | T/C (dose: 25.0 mg/kg/injection, schedule: Q01DX010 (sc), vehicle: Klucel (hydroxypropylcellulose) (HPC)): 41 % of control

Cc1c2cc[n+](CCN3CCCCC3)cc2c(C)c2c1[nH]c1ccc(O)cc12
T/C (dose: 12.5 mg/kg/injection, schedule: Q04DX004 (sc), vehicle: suspension in saline): 100 % of control | T/C (dose: 25.0 mg/kg/injection, schedule: Q04DX004 (sc), vehicle: suspension in saline): 108 % of control | T/C (dose: 50.0 mg/kg/injection, schedule: Q04DX004 (sc), vehicle: suspension in saline): 98 % of control

CN(CCN(C)C(=O)CCOS(C)(=O)=O)C(=O)CCOS(C)(=O)=O
T/C (dose: 75.0 mg/kg/injection, schedule: Q04DX004 (sc), vehicle: saline): 64 % of control | T/C [5]: 36 % of control

O=[n+]1c2ccccc2n([O-])c2ccccc21.[Cl][Ni][Cl]
T/C [1]: 92 % of control | T/C [2]: 89 % of control

CC(=O)OCC1OC(n2cc(CBr)nn2)C(OC(C)=O)C(OC(C)=O)C1OC(C)=O (stereo not given)
T/C (dose: 200.0 mg/kg/injection, schedule: Q01DX010 (sc), vehicle: saline with Tween-80): 79 % of control | T/C [6]: 97 % of control | T/C (dose: 800.0 mg/kg/injection, schedule: Q01DX010 (sc), vehicle: saline with Tween-80): 70 % of control

CCCCCCCCCCCC(=O)NC1CC(O[C@H]2C[C@](O)(C(=O)CO)Cc3c(O)c4c(c(O)c32)C(=O)c2c(OC)cccc2C4=O)OC(C)C1O (stereo not given in full)
T/C (dose: 100.0 mg/kg/injection, schedule: Q01DX010 (sc), vehicle: water): 105 % of control | T/C (dose: 200.0 mg/kg/injection, schedule: Q01DX010 (sc), vehicle: water): 68 % of control | T/C (dose: 400.0 mg/kg/injection, schedule: Q01DX010 (sc), vehicle: water): 26 % of control

Cc1ccc(C2NC(=O)c3ccccc3N2)s1 (stereo not given)
T/C [7]: 101 % of control | T/C [8]: 95 % of control | T/C [9]: 96 % of control | T/C (dose: 4800.0 mg/kg/injection, schedule: Q04DX004 (sc), vehicle: Klucel (hydroxypropylcellulose) (HPC)): 92 % of control

[I][Hg][CH2]C1OCCOC1[CH2][Hg][I] (stereo not given)
T/C [10]: 81 % of control | T/C [7]: 104 % of control | T/C [8]: 80 % of control | T/C [9]: 73 % of control

C[C@@H]1C[C@H]2[C@@H]3CCC4=CC(=O)C=C[C@]4(C)[C@@]3(F)[C@@H](O)C[C@]2(C)[C@@]1(O)C(=O)CO
T/C (dose: 1.56 mg/kg/injection, schedule: Q01DX010 (sc), vehicle: Klucel (hydroxypropylcellulose) (HPC)): 62 % of control | T/C (dose: 3.13 mg/kg/injection, schedule: Q01DX010 (sc), vehicle: Klucel (hydroxypropylcellulose) (HPC)): 40 % of control | T/C (dose: 6.25 mg/kg/injection, schedule: Q01DX010 (sc), vehicle: Klucel (hydroxypropylcellulose) (HPC)): 42 % of control | T/C [4]: 39 % of control

COC12C(COC(N)=O)C3=C(C(=O)C(C)=C(N)C3=O)N1CC1C2N1C (stereo not given)
T/C (dose: 2.0 mg/kg/injection, schedule: Q01DX010 (sc), vehicle: saline): 114 % of control | T/C (dose: 4.0 mg/kg/injection, schedule: Q01DX010 (sc), vehicle: saline): 8 % of control and 12 % of control

CCCCCCCCCCCCCCCCCC(=O)Nc1ccn(C2OC(CO)C(O)C2O)c(=O)n1 (stereo not given)
T/C [2]: 49 % of control and 61 % of control | T/C [3]: 67 % of control and 89 % of control | T/C (dose: 1200.0 mg/kg/injection, schedule: Q04DX004 (sc), vehicle: saline with Tween-80): 14 % of control and 32 % of control

Cc1cc(C)c(-c2cc(O)c(C)cc2O)c(C)c1
T/C [8]: 68 % of control | T/C [9]: 71 % of control

CC[C@@H](C)[C@@H]1NC(=O)C(NC(=O)C(CC(C)C)N(C)C(=O)C2CCCN2C(=O)C(C)O)C(C)OC(=O)C(Cc2ccc(OC)cc2)N(C)C(=O)C2CCCN2C(=O)C(CC(C)C)NC(=O)C(C)C(=O)C(C(C)C)OC(=O)C[C@H]1O (stereo not given in full)
T/C (dose: 225.0 micrograms/kg/injection, schedule: Q04DX004 (sc), vehicle: distilled water + alcohol): 105 % of control | T/C (dose: 450.0 micrograms/kg/injection, schedule: Q04DX004 (sc), vehicle: distilled water + alcohol): 106 % of control | T/C (dose: 900.0 micrograms/kg/injection, schedule: Q04DX004 (sc), vehicle: distilled water + alcohol): 78 % of control | T/C (dose: 1800.0 micrograms/kg/injection, schedule: Q04DX004 (sc), vehicle: distilled water + alcohol): 29 % of control

CO[C@H](/C(C)=C/C=C/C(C)=C/c1coc(C)n1)[C@H](C)[C@H]1C[C@@H](O)[C@@]2(C)O[C@H]2/C=C/[C@@H](C)[C@@H]2C[C@@H](CC(=O)O2)C[C@H]2O[C@@H]2C(=O)O1
T/C (dose: 0.12 mg/kg/injection, schedule: Q04DX004 (sc), vehicle: Klucel (hydroxypropylcellulose) (HPC)): 87 % of control | T/C (dose: 0.25 mg/kg/injection, schedule: Q04DX004 (sc), vehicle: Klucel (hydroxypropylcellulose) (HPC)): 45 % of control | T/C (dose: 0.5 mg/kg/injection, schedule: Q04DX004 (sc), vehicle: Klucel (hydroxypropylcellulose) (HPC)): 30 % of control

COc1c(O)c2c(c3cc(C(=O)N4CCc5c4c(O)c(OC)c4[nH]c(C(=O)N6CC7CC78C6=CC(=O)c6[nH]cc(C)c68)cc54)[nH]c13)CCN2C(N)=O (stereo not given)
T/C (dose: 6.25 micrograms/kg/injection, schedule: Q01DX010 (sc), vehicle: DMSO): 96 % of control | T/C (dose: 12.5 micrograms/kg/injection, schedule: Q01DX010 (sc), vehicle: DMSO): 108 % of control | T/C (dose: 25.0 micrograms/kg/injection, schedule: Q01DX010 (sc), vehicle: DMSO): 65 % of control | T/C (dose: 50.0 micrograms/kg/injection, schedule: Q01DX010 (sc), vehicle: DMSO): 89 % of control

Ic1ncnc2c1ncn2C1CCCO1 (stereo not given)
T/C [10]: 55 % of control | T/C [7]: 112 % of control | T/C [9]: 72 % of control

Cc1c2oc3c(C)ccc(C(=O)NC4C(=O)NC(C(C)C)C(=O)N5CCCC5C(=O)N(C)CC(=O)N(C)C(C(C)C)C(=O)OC4C)c3nc-2c(C(=O)NC2C(=O)NC(C(C)C)C(=O)N3CCC3C(=O)N(C)CC(=O)N(C)C(C(C)C)C(=O)OC2C)c(N)c1=O (stereo not given) (I: TV[Aze][Sar][NMeV] / II: TVP[Sar][NMeV]; ester I:1-I:C, II:1-II:C; linker I:N-II:N via Actinocin(1to9); configuration not given here)
T/C (dose: 0.5 mg/kg/injection, schedule: Q04DX004 (sc), vehicle: saline + alcohol): 59 % of control | T/C (dose: 1.0 mg/kg/injection, schedule: Q04DX004 (sc), vehicle: saline + alcohol): 30 % of control

CCOC(=O)CNC(=O)Sc1ccc(C(C)(C)C)cc1
T/C (dose: 300.0 mg/kg/injection, schedule: Q04DX003 (sc), vehicle: Klucel (hydroxypropylcellulose) (HPC)): 98 % of control | T/C (dose: 600.0 mg/kg/injection, schedule: Q04DX003 (sc), vehicle: Klucel (hydroxypropylcellulose) (HPC)): 113 % of control | T/C (dose: 1200.0 mg/kg/injection, schedule: Q04DX003 (sc), vehicle: Klucel (hydroxypropylcellulose) (HPC)): 44 % of control | T/C (dose: 2400.0 mg/kg/injection, schedule: Q04DX003 (sc), vehicle: Klucel (hydroxypropylcellulose) (HPC)): 103 % of control

C(COCCOCC1CO1)OCCOCC1CO1 (stereo not given)
T/C [5]: 63 % of control | T/C (dose: 300.0 mg/kg/injection, schedule: Q04DX004 (sc), vehicle: saline): 55 % of control | T/C (dose: 600.0 mg/kg/injection, schedule: Q04DX004 (sc), vehicle: saline): 43 % of control

Clc1ccc(CN2COc3c(ccc4cccnc34)C2)cc1Cl
T/C (dose: 100.0 mg/kg/injection, schedule: Q01DX010 (sc), vehicle: saline with Tween-80): 73 % of control | T/C [6]: 60 % of control and 72 % of control

COc1ccc(CC2C(=O)NC(C)C(=O)N(C)C3C(=O)N(C)C(Cc4ccc(O)c(c4)Oc4ccc(cc4)C3O)C(=O)NC(C)C(=O)NC(C)C(=O)N2C)cc1 (stereo not given)
T/C (dose: 0.25 mg/kg/injection, schedule: Q01DX010 (sc), vehicle: saline with Tween-80): 94 % of control

CC1OC1C(=O)C1(O)C(C)C(O)C23OC2(C(O)c2c(O)cccc2C3=O)C1O (stereo not given)
T/C (dose: 12.0 mg/kg/injection, schedule: Q04DX004 (sc), vehicle: Klucel (hydroxypropylcellulose) (HPC)): 172 % of control | T/C (dose: 24.0 mg/kg/injection, schedule: Q04DX004 (sc), vehicle: Klucel (hydroxypropylcellulose) (HPC)): 99 % of control | T/C (dose: 48.0 mg/kg/injection, schedule: Q04DX004 (sc), vehicle: Klucel (hydroxypropylcellulose) (HPC)): 92 % of control
